The target of one assay is T1, human PARP-1 (Homo sapiens, UniProt P09874).
T1 construct: purchased Trevigen Inc., Gaithersburg, Md
The assay is described as follows: Poly (ADP-Ribose) Polymerase-1 (PARP-1) in vitro enzyme assay (Universal Colorimetric PARP Assay Kit). It counts as biochemical. As to conditions: letter codes; read-out: extent of inhibition of PARP activity (IC50, micromolar). From the text:
Poly (ADP-Ribose) Polymerase-1 (PARP-1) In Vitro Enzyme Assay: Compounds can be screened for inhibitory activity against human PARP-1 in vitro using the Universal Colorimetric PARP Assay Kit (Trevigen Inc., Gaithersburg, Md.) as directed by the supplier. Compounds can be assayed in duplicate in 0.5% DMSO final concentration, negative control is no enzyme, while positive control is DMSO vehicle alone. IC50 determinations can be made using Microsoft Excel. For all cell assays, compounds can be added to cells in 5% DMSO/PBS for a final concentration of 0.5% DMSO.

Assay [1] has as its system vascular smooth muscle cells in tumors. Particulars: cited from earlier work.
In a further assay the test system is rat. Particulars: 45 minutes ischemia, up to six hours reperfusion; drug one minute before reperfusion; cited from earlier work.
A further assay has as its system mouse. Particulars: mouse arthritis; inflammatory cell infiltration, hyperplasia of the synovium, tissue necrosis; cited from earlier work.
Another assay deals with Mice. As to conditions: eleven minutes aortic ischemia, 48 hours reperfusion, cited from earlier work.
A further assay relates to PARP-1. As to conditions: agent alone; cited from earlier work.
For another assay, the system named is rats. Particulars: hemorrhagic shock and resuscitation; cited from earlier work.

As usually defined, the pIC50 is −log10 of the IC50, conventionally taken in molar units.

pIC50: −log10 of the molar value.

T1 sequence (P09874 whole entry): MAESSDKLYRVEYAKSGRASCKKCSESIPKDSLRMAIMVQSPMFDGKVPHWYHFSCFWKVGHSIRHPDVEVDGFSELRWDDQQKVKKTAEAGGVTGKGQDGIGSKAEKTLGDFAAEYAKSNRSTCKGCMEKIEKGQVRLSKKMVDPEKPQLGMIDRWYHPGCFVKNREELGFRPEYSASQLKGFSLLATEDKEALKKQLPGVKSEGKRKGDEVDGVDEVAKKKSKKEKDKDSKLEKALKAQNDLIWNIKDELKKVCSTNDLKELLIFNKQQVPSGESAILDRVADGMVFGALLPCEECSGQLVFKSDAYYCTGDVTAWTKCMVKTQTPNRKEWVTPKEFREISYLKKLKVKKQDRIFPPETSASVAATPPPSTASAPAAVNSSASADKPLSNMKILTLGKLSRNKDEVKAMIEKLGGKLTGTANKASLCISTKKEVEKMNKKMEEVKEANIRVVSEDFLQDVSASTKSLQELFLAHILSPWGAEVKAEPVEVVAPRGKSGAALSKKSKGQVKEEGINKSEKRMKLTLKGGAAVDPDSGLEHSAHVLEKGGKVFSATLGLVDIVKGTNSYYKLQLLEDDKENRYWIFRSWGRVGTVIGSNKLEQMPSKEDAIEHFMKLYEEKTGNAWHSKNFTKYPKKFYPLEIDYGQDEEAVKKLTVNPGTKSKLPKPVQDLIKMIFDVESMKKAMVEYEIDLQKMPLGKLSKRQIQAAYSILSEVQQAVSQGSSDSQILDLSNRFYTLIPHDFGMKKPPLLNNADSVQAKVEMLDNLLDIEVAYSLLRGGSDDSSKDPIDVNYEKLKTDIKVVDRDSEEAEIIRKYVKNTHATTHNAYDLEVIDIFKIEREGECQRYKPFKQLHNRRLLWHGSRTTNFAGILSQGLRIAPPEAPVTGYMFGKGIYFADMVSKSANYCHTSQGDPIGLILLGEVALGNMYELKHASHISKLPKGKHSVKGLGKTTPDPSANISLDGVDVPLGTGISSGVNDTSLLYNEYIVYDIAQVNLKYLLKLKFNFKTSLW

For `NC(=O)c1cccc2[nH]c(C3Cc4ccc(N)cc4CN3)nc12` (stereo not shown) [2-(7-Amino-1,2,3,4-tetrahydroisoquinolin-3-yl)-1H-benzo[d]imidazole-4-carboxamide], the negative logarithm of the IC50 (pIC50) on human PARP-1 was greater than 6.30.

As for `NC(=O)c1cccnc1` [nicotinamide], the “contraction of vascular smooth muscle cells in tumors” value in assay [1] is on record as “inhibit contraction”.

Consider `CC(C)(C)OC(=O)N1c2ccccc2CCC1c1nc2c(C(N)=O)cccc2[nH]1` (stereo not shown) [tert-Butyl 2-(4-carbamoyl-1H-benzo[d]imidazol-2-yl)-3,4-dihydroquinoline-1(2H)-carboxylate], for which, at human PARP-1, the pIC50 is less than 5.70.

Take `Oc1cccc2c(O)nccc12` [1,5-dihroxyisoquinoline]: the “kidney function (plasma urea, plasma creatinine, glomerular filtration rate)” value in the assay on rat is listed as “improved kidney function”.

On to `Nc1ccc2oc(=O)ccc2c1I` [5-iodo-6-amino-1,2-benzopyrone], for which the “severity of the disease as assessed by histological parameters” value in the assay with mouse is given as “reduced the severity of the disease”.

Take `CN(C)CC(=O)Nc1ccc2[nH]c(=O)c3ccccc3c2c1` [PJ34]: in the assay with Mice, the “fibrinolysis stimulated by the ischemia-reperfusion” value is “no apparent affect” and the “steady state levels of a marker for neutrophil infiltration” value was “decrease steady state levels”. Besides, the renal mitochondrial activity entry in the assay on Mice (treated 1 hour before and immediately after ischemia) is recorded as “preserve renal mitochondrial activity”.

For `NC(=O)c1cccc2[nH]c(C3c4ccccc4CCN3C(=O)OCc3ccccc3)nc12` (stereo not shown) [Benzyl 1-(4-carbamoyl-1H-benzo[d]imidazol-2-yl)-3,4-dihydroisoquinoline-2(1H)-carboxylate], the pIC50 on human PARP-1 was less than 5.70.

Consider `CC[C@@]1(O)C(=O)OCc2c1cc1n(c2=O)Cc2cc3ccccc3nc2-1` [camptothecin], for which the “activation of PARP-1” value with PARP-1 is given as “four-fold activation”.

On to `NC(=O)c1cccc(N)c1` [3-aminobenzamide], for which the “kidney function (plasma urea, plasma creatinine, glomerular filtration rate)” value in the assay on rat is recorded as “improved kidney function”.

Take `CC1(c2nc3c(C(N)=O)cccc3[nH]2)Cc2ccccc2CN1` (stereo not shown) [2-(3-Methyl-1,2,3,4-tetrahydroisoquinolin-3-yl)-1H-benzo[d]imidazole-4-carboxamide]: the negative logarithm of the IC50 (pIC50) on human PARP-1 is greater than 6.30.

Take `NC(=O)c1cccc2[nH]c(C3CCc4ccccc4N3)nc12` (stereo not shown) [2-(1,2,3,4-Tetrahydroquinolin-2-yl)-1H-benzo[d]imidazole-4-carboxamide]: the pIC50 at human PARP-1 is greater than 6.30.

Turning to `COc1cc([C@@H]2c3cc4c(cc3[C@@H](O[C@@H]3O[C@@H]5CO[C@@H](C)O[C@H]5[C@H](O)[C@H]3O)[C@H]3COC(=O)[C@H]23)OCO4)cc(OC)c1O` [etoposide], in the assay with PARP-1, the “activation of PARP-1” value is reported as “failed to induce PARP-1”.

`NC(=O)c1cccc2[nH]c(C3NCCc4ccccc43)nc12` (stereo not shown) [2-(1,2,3,4-Tetrahydroisoquinolin-1-yl)-1H-benzo[d]imidazole-4-carboxamide]: the pIC50 at human PARP-1 is greater than 6.30.

On to `NC(=O)c1cccc2[nH]c(C3Cc4ccccc4CN3)nc12` (stereo not shown) [2-(1,2,3,4-Tetrahydroisoquinolin-3-yl)-1H-benzo[d]imidazole-4-carboxamide], for which, on human PARP-1, the pIC50 is greater than 6.30.

For `NC(=O)c1cccc2[nH]c(C3NCc4ccccc43)nc12` (stereo not shown) [2-(Isoindolin-1-yl)-1H-benzo[d]imidazole-4-carboxamide], the pIC50 at human PARP-1 was greater than 6.30.

Consider `NC(=O)c1cccc2[nH]c(C3Cc4ccccc4N3C(=O)OCc3ccccc3)nc12` (stereo not shown) [Benzyl 2-(4-carbamoyl-1H-benzo[d]imidazol-2-yl)indoline-1-carboxylate], for which the pIC50 at human PARP-1 is less than 5.70.

Turning to `NC(=O)c1cccc2[nH]c(C3Cc4ccccc4CN3C(=O)OCc3ccccc3)nc12` (stereo not shown) [Benzyl 3-(4-carbamoyl-1H-benzo[d]imidazol-2-yl)-3,4-dihydroisoquinoline-2-(1H)-carboxylate], the pIC50 on human PARP-1 was 5.70 to 6.30.

On to `NC(=O)c1cccc2[nH]c(C3c4ccccc4CN3C(=O)OCc3ccccc3)nc12` (stereo not shown) [Benzyl 1-(4-carbamoyl-1H-benzo[d]imidazol-2-yl)isoindoline-2-carboxylate], for which the pIC50 at human PARP-1 was less than 5.70.

With `CC(C)(C)OC(=O)Nc1ccc2c(c1)CN(C(=O)OC(C)(C)C)C(c1nc3c(C(N)=O)cccc3[nH]1)C2` (stereo not shown) [tert-Butyl 7-((tert-butoxycarbonyl)amino)-3-(4-carbamoyl-1H-benzo[d]imidazol-2-yl)-3,4-dihydroisoquinoline-2(1H)-carboxylate], the pIC50 on human PARP-1 is less than 5.70.

On to `CC1(c2nc3c(C(N)=O)cccc3[nH]2)Cc2ccccc2CN1C(=O)OCc1ccccc1` (stereo not shown) [Benzyl 3-(4-carbamoyl-1H-benzo[d]imidazol-2-yl)-3-methyl-3,4-dihydroisoquinoline-2(1H)-carboxylate], for which the negative-log IC50 (pIC50) on human PARP-1 was less than 5.70.

With `NC(=O)c1cccc2[nH]c(C3Cc4ccccc4N3)nc12` (stereo not shown) [2-(Indolin-2yl)-1H-benzo[d]imidazole-4-carboxamide], on human PARP-1, the pIC50 was greater than 6.30.

Turning to `Nc1cccc2cnccc12` [5-aminoisoquinoline], in the assay with rats, the leukocyte-endothelial interaction result was “decreased leukocyte-endothelial interaction”, the liver function result is “improved liver function” and the liver injury entry is listed as “decreased liver injury”.

Turning to `CC(C)(C)OC(=O)Nc1ccc2c(c1)CNC(c1nc3c(C(N)=O)cccc3[nH]1)C2` (stereo not shown) [tert-Butyl (3-(4-carbamoyl-1H-benzo[d]imidazol-2-yl)-1,2,3,4-tetrahydroisoquinolin-7-yl)carbamates], the pIC50 at human PARP-1 is less than 5.70.

Regarding `CC(C)(C)OC(=O)N1Cc2cc(N)ccc2CC1c1nc2c(C(N)=O)cccc2[nH]1` (stereo not shown) [tert-Butyl 7-amino-3-(4-carbamoyl-1H-benzo[d]imidazol-2-yl)-3,4-dihydroisoquinoline-2(1H)-carboxylate], the pIC50 at human PARP-1 is less than 5.70.

(Values after patent US8513433B2, “Small molecule inhibitors of PARP activity” (Angion Biomedica Corp., priority 2009, dated 2013).)
